In US9452226B2, “Rodent model of central neuropathic pain caused by dorsal root entry zone avulsion at T13” (priority 2008, dated 2016):
Entries after “also recorded” stand apart in the source; their conditions may differ.

How the values were obtained:
[1] = system: rats having DREZs avulsed at T13/L1; experiment: von Frey allodynia test in T13/L1 DREZ avulsion rat model, intrathecal ibudilast (Example 2); type: in vivo; details: intrathecally daily in corn oil carrier; unilateral (FIG. 2) or bilateral (FIG. 3) DREZ avulsion; vs sham controls receiving corn oil
Method: Rats were anesthetized using isoflurane. Under aseptic condition, the skin was incised in the midline along the posterior thoracolumbar region. The paravertebral muscles were retracted laterally to expose the posterior aspect of the spinal laminae. Laminectomies were performed and the dura mater then incised along the midline to expose the dorsal rootlets 10 of T13 and L1. The dorsal rootlets of T13 and L1 were then avulsed out of the spinal cord 15 on the left side using micronstrumentation 5 (see FIG. 4B). A visual defect 25 in pia and dorsal cord where the rootlets 10 were avulsed can be seen in FIG. 4B. The grey matter 30 of the spinal cord 15 is also shown. Hemostasis was obtained and a layer of gelfoam placed over the dura. The wound was closed in layers. Perioperative antibiotics were administered in prophylaxis against infection. Subject rats were tested for allodynia of the hindpaws with the von Frey hair test, beginning day one post surgery and continuing daily over the subsequent four weeks. Rat animal model was generated similar to above. In one experiment, DREZ avulsion was unilateral (FIG. 2). In one experiment, DREZ avulsion was bilateral (FIG. 3). Ibudilast was delivered intrathecally daily in a corn oil carrier, with sham controls receiving only the corn oil.

[2] = system: rats with unilateral T13/L1 dorsal root avulsion; experiment: von Frey test after unilateral T13/L1 dorsal root avulsion, daily s.c. AV411 (Example 5); type: in vivo, rat
Method: The dorsal spinal cord was exposed by laminectomy at the T13/L1 spinal level. The T13 and L1 dorsal roots were each isolated, clamped at the dorsal root entry zone (DREZ) and briskly pulled out of the spinal cord as described above. AV411 was administered to animals avulsed at the T13 and L1 dorsal root entry zones. The compound AV411 was administered to animals subject to the T13 and L1 hind paws. […] The reversal begins after 5-6 injections and continues to reverse behavior until day 33. The contralateral paw began to resolve at day 28 and the ipsilateral paw was still sensitive at day 33. […] Response thresholds on the von Frey test were recorded prior to and across a timecourse after avulsion surgery. Beginning on Day 12 post-surgery, rats (n=4/group) received once daily s.c. injections of either the glial activation inhibitor AV411/Ibudilast (Sigma; 5-mg/kg or 10-mg/kg) or equivolume vehicle (corn oil; 0.5-ml/kg). Daily drug treatment and intermittent behavioral testing continued through 33 days after surgery.

SMILES: CC(C)C(=O)c1c(C(C)C)nn2ccccc12 [AV411, 2-methyl-1-(2-propan-2-ylpyrazolo[1,5-a]pyridin-3-yl)propan-1-one]
- effect on allodynia in the model [1]: decreases allodynia
- difference between the 5 mg and 10 mg dose ([2]; allodynia reversal, daily s.c.): not differences
- reversal of behavior continues until ([2]; days after surgery, daily s.c. treatment through day 33): 33 days
- effect on allodynia induced by avulsion (von Frey response thresholds) ([2]; once daily s.c. 5-mg/kg or 10-mg/kg from Day 12 post-surgery through day 33, vs corn oil vehicle): reversed allodynia; also recorded: reverses bilateral allodynia
- effect of administering AV411 on hind paw mechanical allodynia as printed ([2]; unilateral T13/L1 dorsal root avulsion, lasting upwards of 1.5 months): induces bilateral mechanical allodynia
